According to patent US20180296523A1, “USE OF POLYMETHOXYLATED FLAVONES TO AMELIORATE CIRCADIAN RHYTHM DISORDERS” (THE BOARD OF REGENTS OF THE UNIVERSITY OF TEXAS SY, priority 2017, published 2018):
“Also recorded” adds a separate entry of the source.

Tests used:
[1] = molecular target: T1, GAL4 DBD-RORα LBD (Mus musculus, UniProt P51448); assay: Mammalian one-hybrid reporter assay in HEK293T cells, GAL4-RORα; format: cell-based; details: ligand interaction reduces transcriptional activity
T1 construct: mouse RORα-LBD (aa 261-523); expressed in transfected cells; host or cells: HEK293T
T1 sequence (P51448 261-523): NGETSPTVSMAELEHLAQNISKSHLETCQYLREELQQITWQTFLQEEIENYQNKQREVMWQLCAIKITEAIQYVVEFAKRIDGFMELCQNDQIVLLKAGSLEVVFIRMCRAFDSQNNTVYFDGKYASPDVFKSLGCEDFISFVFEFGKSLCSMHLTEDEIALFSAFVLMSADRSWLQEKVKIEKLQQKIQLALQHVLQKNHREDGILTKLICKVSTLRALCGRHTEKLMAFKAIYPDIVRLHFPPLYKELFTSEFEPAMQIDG
Description: (§1) Plasmids containing the retinoic acid-related orphan receptor response element (RORE) from mouse Bmal1 promoter, pcDNA3.1B-G4DBD-RORαLBD and pcDNA3.1BG4DBD-RORγLBD were constructed in our lab. Specifically, the 1960 bp sequences (−1830/+130) of the mouse Bmal1 promoter harboring either WT ([…] (SEQ ID NO:1) and […] (SEQ ID NO:2)) or mutant ([…] (SEQ ID NO:3)) RORE were PCR amplified from mouse genomic DNA and cloned into pGL3-promoter luciferase vector. For expression of RORα or RORγ-GAL4 protein, mouse RORα-LBD (aa 261-523) or RORγ-LBD (aa 250-516) were PCR amplified from mouse genomic DNA and cloned into a GAL4-DBD-containing vector, pcDNA3.1B.
(§2) For mammalian one-hybrid assays, HEK293T cells were cotransfected with pcDNA3.1B-G4DBD-RORα/γLBD, pGL4.31 and TK promoter Renilla luciferase construct (tK.pRL). To investigate the regulation of the Bmal1 reporter, Hepa1-6 cells were cotransfected with Bmal1-WT or mutant RORE reporter plasmids, RORα, RORγ or Rev-erbα expression construct along with tK.pRL. Mouse and human siRNA targeting RORα and RORγ were purchased from Santa Cruz. Transfection was performed by Lipfectamine 2000 reagent (Invitrogen) Twenty-four hours after transfection, the cells were treated with vehicle or NOB. Lysates were collected 24 h after treatment, and firefly and Renilla luciferase activities were measured by using a Dual-Luciferase Reporter System (Promega).
(§3) For radio-ligand receptor binding assays, previously described protocols with minor modifications (Kumar et al., 2010; Wang et al., 2010b) were adopted.

[2] = molecular target: T2, RORγ-LBD (Homo sapiens, UniProt P51449); assay: Radioligand receptor binding assay with 25-[3H]-OHC, RORγ-LBD; details: in the presence of 4.5 nM 25-[3H]-OHC
T2 sequence (P51449 269-508 limits assumed): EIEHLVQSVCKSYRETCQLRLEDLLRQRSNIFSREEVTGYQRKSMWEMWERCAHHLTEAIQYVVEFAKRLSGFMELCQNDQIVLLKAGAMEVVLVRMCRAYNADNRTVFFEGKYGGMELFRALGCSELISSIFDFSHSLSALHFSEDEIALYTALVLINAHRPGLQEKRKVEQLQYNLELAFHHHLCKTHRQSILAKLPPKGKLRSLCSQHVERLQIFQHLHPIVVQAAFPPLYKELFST
Description: Ligand binding was determined by filter binding assays to calculate the Kd value. […] Ki was determined using the Cheng-Prusoff equation.

[3] = system: Clock^Δ19/+ PER2::Luc reporter cells; assay: High-throughput chemical screen, PER2::Luc reporter rhythm; format: cell-based, mouse; details: for PER2::Luc reporter rhythm / circadian amplitude: Clock^Δ19/+ cells, forskolin pre-stimulated
Description: Specifically, the chemical screen for circadian clock modulators was conducted at the Chemical Genomics Core facility at the University of Texas Health Science Center at Houston (UTHSC-H). The in-house chemical library screened consisted of compounds from the National Institutes of Health (NIH) Clinical Collection, National Cancer Institute collection, and Microsource Spectrum Collection. Screening was conducted largely on the basis of the protocol previously described (Chen et al., 2012). […] Upon confluency, cells were incubated with 5 μM forskolin for 1-2 hr, followed by the addition of chemical compounds to the plates with robotic arms (Beckman), and then subjected to continuous monitoring over several days in a temperature-controlled EnVision microplate reader (Perkin Elmer). Data analysis was carried out by using the MultiCycle software (Actimetrics) for measurement of period, phase, and amplitude. The chemical screen for circadian clock modulators was conducted at the Chemical Genomics Core facility at the UTHSC-H. The in-house chemical library screened consists of compounds from NIH Clinical Collection, NCI collection and Microsource Spectrum Collection. The screening was conducted largely based on the protocol previously described (Chen et al., 2012). […] Cells were then incubated with 5 μM forskolin for 1-2 h followed by the addition of chemical compounds to the plates with robotic arms (Beckman), and then subjected to continuous monitoring over several days in a temperature-controlled EnVision microplate reader (Perkin Elmer). Data analysis was carried out by using the MultiCycle software (Actimetrics) for measurement of period, phase, and amplitude. […] Tissue explant experiments were conducted as described previously (Chen et al., 2012).

[4] = molecular target: T3, GAL4 DBD-RORγ LBD (Mus musculus, UniProt P51450); assay: Mammalian one-hybrid reporter assay in HEK293T cells, GAL4-RORγ; format: cell-based; details: ligand interaction reduces transcriptional activity
T3 construct: RORγ-LBD (aa 250-516); expressed in transfected cells; host or cells: HEK293T
T3 sequence (P51450 250-516): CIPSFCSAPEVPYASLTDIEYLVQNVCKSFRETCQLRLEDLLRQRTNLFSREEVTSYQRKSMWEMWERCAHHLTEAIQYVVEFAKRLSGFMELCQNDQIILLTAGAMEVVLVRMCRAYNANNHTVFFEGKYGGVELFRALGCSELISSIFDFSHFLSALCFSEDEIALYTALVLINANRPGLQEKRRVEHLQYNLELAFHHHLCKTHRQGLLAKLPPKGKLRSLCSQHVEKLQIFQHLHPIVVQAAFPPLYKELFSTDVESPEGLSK
Description: as §1, §2, §3

[5] = system: Bmal1 promoter (RORE) with RORα or RORγ; assay: Bmal1 promoter-driven luciferase reporter in Hepa1-6 cells; format: cell-based, mouse
Description: as §1, §2

[6] = system: Cps1 gene; details: Clock^Δ19/Δ19 mutant mice; cited from earlier work

Structure (SMILES) | activity on GAL4-RORα chimeric receptor [1] | competitive binding to RORγ-LBD [2] | PER2::Luc reporter rhythm / circadian amplitude [3] | reporter luminescence ([3]; PER2::LUC Clock^Δ19/+ reporter cells) | activity on GAL4-RORγ chimeric receptor [4] | Bmal1 reporter activation with ectopic expression of REV-ERBα [5] | induction of Bmal1 reporter after knockdown of RORα/γ by siRNAs ([5]; Hepa1-6 cells) | Bmal1 promoter-driven luciferase reporter activity ([5]; WT RORE, in the presence of RORα or RORγ) | transcriptional induction of the Cps1 gene [6] | PER2::Luc reporter rhythm / circadian amplitude ([3]; listed as Nobiletin)
C[C@@H]1O[C@@H](O[C@H]2[C@H](Oc3cc(O)c4c(c3)O[C@H](c3ccc(O)cc3)CC4=O)O[C@H](CO)[C@@H](O)[C@@H]2O)[C@H](O)[C@H](O)[C@H]1O [naringin, reference compound] | no activities | markedly diminished binding | failed to enhance cellular circadian rhythms | did not enhance the reporter luminescence | no activities | – | – | – | – | –
COc1ccc(-c2cc(=O)c3c(OC)c(OC)c(OC)c(OC)c3o2)cc1OC [nobiletin] | robust activities | direct binding; also recorded: robust competitive binding | enhance the reporter rhythm | – | robust activities | abolished reporter activation | abrogated the nobiletin-mediated induction | dose-dependently increase | impaired | significantly enhance circadian amplitude
